Test results from ChEMBL document CHEMBL4270590, “Azulene-based compounds for targeting orexin receptors” (Eur J Med Chem, 2018).
Active and inactive are the calls of the source. The rule behind the calls is not given here.

Tests used:
[1] = molecular target: T1, Orexin/Hypocretin receptor type 1 (Homo sapiens) (UniProt O43613); experiment: Displacement of [125I]-orexin-A from human OX1 receptor expressed in CHOK1 cells at 10 uM incubated for 10 mins and measured after 90 mins by liquid scintillation counting method relative to control; type: cell-based
T1 sequence (whole entry): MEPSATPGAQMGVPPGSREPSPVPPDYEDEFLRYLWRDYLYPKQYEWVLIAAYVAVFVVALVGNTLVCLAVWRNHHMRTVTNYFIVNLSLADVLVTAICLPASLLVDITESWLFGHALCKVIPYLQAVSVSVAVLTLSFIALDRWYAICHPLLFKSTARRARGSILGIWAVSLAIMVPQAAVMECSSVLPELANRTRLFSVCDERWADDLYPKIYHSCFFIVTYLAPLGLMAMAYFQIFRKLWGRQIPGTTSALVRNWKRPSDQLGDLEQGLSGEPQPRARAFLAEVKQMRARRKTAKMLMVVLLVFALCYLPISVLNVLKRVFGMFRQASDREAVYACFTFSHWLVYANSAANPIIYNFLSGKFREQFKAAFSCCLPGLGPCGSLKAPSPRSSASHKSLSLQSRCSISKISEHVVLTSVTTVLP

[2] = molecular target: T2, Orexin receptor type 2 (Homo sapiens) (UniProt O43614); experiment: Agonist activity at human OX2 receptor expressed in CHOK1 cells assessed as increase in calcium accumulation at 10 uM incubated for 30 mins measured for 150 secs by calcium-4 dye based FLIPR assay relative to orexin-A; type: functional, cell-based
T2 sequence (whole entry): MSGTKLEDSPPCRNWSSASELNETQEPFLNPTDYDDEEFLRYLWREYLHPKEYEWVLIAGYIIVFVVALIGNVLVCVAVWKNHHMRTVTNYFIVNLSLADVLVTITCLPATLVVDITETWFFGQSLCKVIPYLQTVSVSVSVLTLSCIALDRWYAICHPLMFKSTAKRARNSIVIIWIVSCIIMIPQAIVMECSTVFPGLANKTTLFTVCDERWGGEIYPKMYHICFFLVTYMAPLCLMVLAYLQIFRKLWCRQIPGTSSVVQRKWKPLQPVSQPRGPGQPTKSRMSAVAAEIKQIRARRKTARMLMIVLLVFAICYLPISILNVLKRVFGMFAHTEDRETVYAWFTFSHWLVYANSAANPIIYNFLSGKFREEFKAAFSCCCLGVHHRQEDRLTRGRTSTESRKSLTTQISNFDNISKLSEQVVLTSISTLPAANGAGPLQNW

[3] = molecular target: T2, Orexin receptor type 2 (Homo sapiens); experiment: Displacement of [125I]-orexin-A from human OX2 receptor expressed in CHOK1 cells at 10 uM incubated for 10 mins and measured after 90 mins by liquid scintillation counting method relative to control; type: cell-based
[4] = molecular target: T1, Orexin/Hypocretin receptor type 1 (Homo sapiens); experiment: Agonist activity at human OX1 receptor expressed in CHOK1 cells assessed as increase in calcium accumulation at 10 uM incubated for 30 mins measured for 150 secs by calcium-4 dye based FLIPR assay relative to orexin-A; type: functional, cell-based
[5] = system: CHO-K1; experiment: Effect on ATP-induced intracellular calcium accumulation in CHOK1 cells expressing human OXR at 10 uM incubated for 30 mins and measured for 150 secs by calcium-4 dye based FLIPR assay; type: functional, cell-based; conditions: Cricetulus griseus
[6] = molecular target: T2, Orexin receptor type 2 (Homo sapiens); experiment: Allosteric agonist activity at human OX2 receptor expressed in CHOK1 cells assessed as potentiation of orexin-A induced calcium accumulation at 10 uM preincubated for 30 mins followed by orexin-A addition and measured for 150 secs by calcium-4 dye based FLIPR assay relative to control; type: functional, cell-based
[7] = molecular target: T1, Orexin/Hypocretin receptor type 1 (Homo sapiens); experiment: Allosteric agonist activity at human OX1 receptor expressed in CHOK1 cells assessed as potentiation of orexin-A induced calcium accumulation at 10 uM preincubated for 30 mins followed by orexin-A addition and measured for 150 secs by calcium-4 dye based FLIPR assay relative to control; type: functional, cell-based
[8] = molecular target: T1, Orexin/Hypocretin receptor type 1 (Homo sapiens); experiment: Agonist activity at human OX1 receptor expressed in CHOK1 cells assessed as increase in calcium accumulation at 10 uM incubated for 30 mins measured for 150 secs in presence of OX1R antagonist SB-334867 by calcium-4 dye based FLIPR assay; type: functional, cell-based
[9] = molecular target: T2, Orexin receptor type 2 (Homo sapiens); experiment: Agonist activity at human OX2 receptor expressed in CHOK1 cells assessed as increase in calcium accumulation at 10 uM incubated for 30 mins measured for 150 secs in presence of OX2R antagonist TCS-1102 by calcium-4 dye based FLIPR assay; type: functional, cell-based
[10] = Solubility of the compound in water; type: physicochemical; conditions: buffer
[11] = molecular target: T2, Orexin receptor type 2 (Homo sapiens); experiment: Allosteric agonist activity at human OX2 receptor expressed in CHOK1 cells assessed as potentiation of orexin-A induced calcium accumulation preincubated for 30 mins followed by orexin-A addition and measured for 150 secs by calcium-4 dye based FLIPR assay; type: functional, cell-based
[12] = molecular target: T1, Orexin/Hypocretin receptor type 1 (Homo sapiens); experiment: Allosteric agonist activity at human OX1 receptor expressed in CHOK1 cells assessed as potentiation of orexin-A induced calcium accumulation preincubated for 30 mins followed by orexin-A addition and measured for 150 secs by calcium-4 dye based FLIPR assay; type: functional, cell-based
[13] = Colloidal aggregating behavior of the compound at 1 to 30 uM by nephelometric method; type: physicochemical
[14] = molecular target: T3, Orexin/Hypocretin receptor type 1 (Homo sapiens, UniProt O43613); experiment: Antagonist activity at human OX1 receptor expressed in CHOK1 cells assessed as inhibition of orexin-A-induced calcium accumulation preincubated for 30 mins followed by orexin-A addition measured for 150 secs by calcium-4 dye based FLIPR assay; type: functional, cell-based; conditions: read-out: Ki(app)
T3 sequence (O43613 whole entry): T1 sequence (whole entry)

[15] = molecular target: T4, Orexin receptor type 2 (Homo sapiens, UniProt O43614); experiment: Antagonist activity at human OX2 receptor expressed in CHOK1 cells assessed as inhibition of orexin-A-induced calcium accumulation preincubated for 30 mins followed by orexin-A addition measured for 150 secs by calcium-4 dye based FLIPR assay; type: functional, cell-based; conditions: read-out: Ki(app)
T4 sequence (O43614 whole entry): T2 sequence (whole entry)

Structure (SMILES)	inhibition [1] [%]	Emax [2] [%]	inhibition [3] [%]	Emax [4] [%]	fold change (FC) [6]	fold change (FC) [7]	Activity [5]	also measured
COC(=O)Cc1ccc2ccc(C(=O)c3ccccc3)c-2cc1		11	-4.3	5.01	0.97	1.86	inactive	Activity [8]: inactive; Activity [9]: inactive
COC(=O)c1ccc2c(C(=O)c3ccccc3)cc(C(=O)c3ccccc3)c-2cc1		-1.51		-0.56	0.88	1.97	inactive	solubility [10]: Insoluble; Activity [11]: Dose-dependent effect; Activity [12]: Dose-dependent effect
O=C(OCc1ccccc1)Oc1ccc2ccc(Cl)ccc1-2	18.2	-2.71	35.6	0.46				
O=C(Oc1ccc2ccc(Cl)ccc1-2)c1cccs1	9.8	-2.7	33.2	0.91				
O=C(O)c1cccc2c(C(=O)c3ccccc3)cc(C(=O)c3ccc(C(F)(F)F)cc3)c-2c1	18.3	-3.18	26.4	-1.38				
O=C(O)Cc1ccc2ccc(C(=O)c3ccc(C(F)(F)F)cc3)c-2cc1	8.6	-1.06	11.2	0.22	0.98	1.5	inactive	
O=C(O)c1cccc2c(C(=O)c3ccccc3)cc(C(=O)c3ccc(C(Cl)(Cl)Cl)cc3)c-2c1	19.9	-3.18	25.6	-1.38				
COC(=O)c1cccc2c(C(=O)c3ccccc3)cc(C(=O)c3ccc(C(F)(F)F)cc3)c-2c1	10.4	-0.14	27	0.69				
O=C(O)c1ccc2ccc(C(=O)c3ccccc3)c-2cc1	11	2.29	32.9	2.16	0.98	1.52	inactive	
COC(=O)c1ccc2ccc(C(=O)c3ccccc3)c-2cc1	7.2	4.92	28.9	4.15	0.79	1.64	inactive	
COC(=O)c1cc(CN2CCOCC2)c2ccc(Cl)ccc1-2	24.5	-0.98	46.7	0.42				Activity [13]: Not Active; Ki [14]: 5.4 to 7.6 µM; Ki [15]: 4.3 to 8.6 µM
O=C(Oc1ccc2ccc(Cl)ccc1-2)c1cccnc1	-2.4	-2.65	32.3	0.6				
O=Cc1ccc2ccc(C(=O)O)ccc1-2	37.8	3.47	44.1	1.75				
CCOc1ccc(-c2cc(C(=O)c3ccccc3)c3ccc(C(=O)O)ccc2-3)cc1		-0.99		-0.17	0.76	1.01	inactive	Activity [13]: Not Active; Ki [14]: 3.1 to 7.5 µM; Ki [15]: 3.2 to 4.9 µM
COC(=O)Cc1ccc2c(C(=O)c3ccccc3)cc(C(=O)c3ccccc3)c-2cc1		0.05		0.28	1.06	1.68	inactive	

More lines, main results first:

inhibition [1] [%]	Emax [2] [%]	inhibition [3] [%]	Emax [4] [%]	fold change (FC) [6]	fold change (FC) [7]	Structure (SMILES)	Activity [5]	also measured
8.5	-0.27	1.8	0.8			COC(=O)c1ccc2c(C=O)cc(-c3ccccc3)c-2cc1		
-4.5	-1.01	36	1.62			CC(C)(C)OC(=O)NCC(=O)Oc1ccc2ccc(Cl)ccc1-2		
10.4	-0.14	27	0.69			COC(=O)c1cccc2c(C(=O)c3ccccc3)cc(C(=O)c3ccc(C(Cl)(Cl)Cl)cc3)c-2c1		
0.1	-3.3	34.3	0.08			O=C(Oc1ccc2ccc(Cl)ccc1-2)c1ccccc1		
25	2.26	37.2	3.06			COC(=O)c1ccc2ccc(C=O)c-2cc1		
	2.96	1	1.09	0.9	1.53	O=C(O)c1ccc2ccc(C(=O)c3ccc(C(F)(F)F)cc3)c-2cc1	inactive	
8	-2.13	24.3	0.73			COC(=O)CCC(=O)Oc1ccc2ccc(Cl)ccc1-2		
6.1	1.71	16.7	0.64			NC(=O)c1ccc2c(C=O)cc(-c3ccccc3)c-2cc1		
	-2.09	27	-1.39	0.75	1.42	O=C(O)c1ccc2c(C(=O)c3ccccc3)cc(C(=O)c3ccccc3)c-2cc1	inactive	
38.3	-0.44	31	0.61			Cc1ccc2ccc(C(=O)c3ccc(C(F)(F)F)cc3)c-2cc1		
16.2	-0.21	21.5	0.8			O=Cc1cc(-c2ccccc2)c2ccc(C(=O)O)ccc1-2		
	12.4		6.13	0.86	1.59	COC(=O)c1ccc2ccc(C(=O)c3ccc(C(F)(F)F)cc3)c-2cc1	inactive	Activity [8]: inactive; Activity [9]: inactive
13.6	1.32	18	0.42			NC(=O)c1ccc2ccc(C(=O)c3ccccc3)c-2cc1		
	-0.25	-5.4	1.17	1.02	1.99	COC(=O)c1ccc2c(I)cc(C(=O)c3ccccc3)c-2cc1	inactive	solubility [10]: Insoluble; Activity [11]: Dose-dependent effect; Activity [12]: Dose-dependent effect
23	0.4	39.9	2.35			COC(=O)c1cc(C=O)c2ccc(/C=C/c3cnc[nH]3)ccc1-2		
8.4	-0.24	19.1	1.49			CCOc1ccc(-c2cc(C(=O)c3ccccc3)c3ccc(C(=O)OC)ccc2-3)cc1		
